Assay results taken from patent publication EP0536419B1, “TRICYCLIC TRIAZOLE DERIVATIVES, PRODUCTION AND USE THEREOF” (TORAY INDUSTRIES, INC., priority 1991, dated 1992).
Structures can show the parent of a compound that is named as a salt.

Key:
[1] = target: rabbit platelets (Oryctolagus cuniculus, UniProt G1TEI7); assay: in vitro platelet agglutination inhibition test (PAF-induced); format: cell-based; settings: rabbit platelet-rich plasma, PAF final concentration 10 ng/ml, 37°C; read-out: PAF-Induced Platelet Aggregation IC50 (converted)
Sequence of rabbit platelets (G1TEI7 1-342): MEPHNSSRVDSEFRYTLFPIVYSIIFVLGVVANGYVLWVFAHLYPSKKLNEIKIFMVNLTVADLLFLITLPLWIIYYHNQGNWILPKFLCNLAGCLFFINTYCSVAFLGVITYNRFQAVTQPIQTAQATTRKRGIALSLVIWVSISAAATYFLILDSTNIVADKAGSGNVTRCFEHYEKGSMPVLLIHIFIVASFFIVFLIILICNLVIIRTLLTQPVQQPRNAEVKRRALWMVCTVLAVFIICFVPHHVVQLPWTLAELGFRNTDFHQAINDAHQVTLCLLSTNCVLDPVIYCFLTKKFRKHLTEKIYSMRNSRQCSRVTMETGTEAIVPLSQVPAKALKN
Description: To determine the PAF-antagonizing property of the compounds, the PAF-induced agglutination of rabbit platelets in vitro is utilized. To obtain platelet-rich plasma (PRP), venous blood is taken from rabbit auricular vein into a plastic centrifugal tube containing 1.0% sodium citrate solution. The ratio of sodium citrate solution to blood is 1:10. The obtained citrate-containing blood is centrifuged at 70 x g (625 rpm) at room temperature for 20 minutes and the PRP in the upper layer is transferred to another plastic tube. The remaining lower layer is further centrifuged at 1500 x g (2800 rpm) for 10 minutes and the platelet poor plasma (PPP) in the upper layer is recovered. The platelet agglutination is measured by using aggregometer commercially available from Niko Bioscience, Inc. An aliquote of the PRP is poured into a cubette for measurement. Immediately thereafter, aspirin, creatinin phosphate and creatinin phosphokinase are added to final concentrations of 0.1 mM, 7 mM and 45 U/ml, respectively. Then a solution of a test compound is added and the resulting mixture is stirred at 37°C for 2 minutes. To the resultant, PAF (final concentration: 10 ng/ml) is added to induce platelet aggregation. The platelet aggregation rate is calculated from the relative maximum value in each aggregation curve taking the transmittance of PPP as the maximum aggregation (100% aggregation). Using the aggregation rate when physiological saline was added as a control, the inhibition rate which was the ratio of the aggregation rate when the test compound was added to the control was calculated and the IC50 values were determined by interpolation.

[2] = target: T1, PAF receptor (Oryctolagus cuniculus, UniProt G1TEI7); assay: Binding test using [3H]-PAF (PAF receptor binding test); parameters: species or system rabbit; settings: rabbit platelet membrane fraction, [3H]-PAF 0.4 nM, 25°C, 60 minutes; read-out: Receptor Binding Inhibition IC50 (converted)
T1 construct: Cell membrane fraction of rabbit platelets was prepared; from tissue; host or cells: rabbit platelets (cell membrane fraction)
T1 sequence (G1TEI7 1-342): as above
Description: Binding Test Using [^3H]-PAF (PAF receptor binding test)
Cell membrane fraction of rabbit platelets was prepared in accordance with the method by Hwang et al (Biochemistry; 22; 4756, (1983)). In 10 mM Tris buffer containing 0.25% bovine serum albumin, 50 mg of this membrane fraction was suspended and tritium-labelled PAF [^3H]-PAF; 0.4 nM) and a test compound were added thereto. After incubating the resulting mixture at 25°C for 60 minutes, the mixture was subjected to filtration through a filter paper made of glass fibers. The filter paper was washed with cold Tris buffer three times and then transferred to a vial. A scintillator was added thereto and the dose of radioactivity was measured with a liquid scintillation counter. The inhibition rate (binding ability) of the test compound was calculated according to the following equation and IC50 values were determined by interpolation. Inhibition Rate (%) = {1 - [((A - B))/((C - B))]} x 100 [formula] (wherein A represents amount bound in the presence of the compound, B represents amount bound by non-specific binding which is the dose of [^3H]-PAF bound radioactivity in the presence of 1 µM of PAF, and C represents total amount bound which is the dose of [^3H]-PAF bound radioactivity.
As a control agent, WEB2086 (Japanese Laid-open Patent Application (Kokai) No. 65-176591) disclosed as a PAF-antagonist was used.

COc1cccc(C(O)(c2ccccc2)C2CCN(CCCN3Cc4nnc(C)n4-c4ccccc43)CC2)c1 (stereo not shown) [Compound 133, 4,5-dihydro-1-methyl-5-[3-[4-[hydroxy(3-methoxyphenyl)phenylmethyl]piperidin-1-yl]propyl] [1,2,4]triazolo[4,3-a]quinoxaline]
IC50 [1]: 120 nM | IC50 [2]: 32.5 nM

Cc1cccc(C(O)(c2cccc(C)c2)C2CCN(CCCN3Cc4nnc(C)n4-c4ccccc43)CC2)c1 [Compound 134, 4,5-dihydro-1-methyl-5-[3-[4-[hydroxybis(3-tolyl)methyl]piperidin-1-yl]propyl][1,2,4]triazolo[4,3-a]quinoxaline]
IC50 [1]: 97.8 nM | IC50 [2]: 9.58 nM

COc1cccc(C(O)(c2cccc(OC)c2)C2CCN(CCCN3Cc4nnc(C)n4-c4ccccc43)CC2)c1 [Compound 135, 4,5-dihydro-1-methyl-5-[3-[4-[hydroxybis(3-methoxyphenyl)methyl]piperidin-1-yl]propyl] [1,2,4]triazolo[4,3-a]quinoxaline]
IC50 [1]: 1590 nM | IC50 [2]: 37.9 nM

COc1ccc(C(O)(c2ccc(OC)c(OC)c2)C2CCN(CCCN3Cc4nnc(C)n4-c4ccccc43)CC2)cc1OC [Compound 138, 4,5-dihydro-1-methyl-5-[3-[4-[hydroxybis(3,4-dimethoxyphenyl)methyl]piperidin-1-yl]propyl] [1,2,4]triazolo[4,3-a]quinoxaline]
IC50 [1]: 1320 nM | IC50 [2]: 1170 nM

COc1cccc(C(=C2CCN(CCCN3Cc4nnc(C)n4-c4ccccc43)CC2)c2ccccc2)c1 [Compound 140, 4,5-dihydro-1-methyl-5-[3-[4-[(3-methoxyphenyl)phenylmethylene]piperidin-1-yl]propyl] [1,2,4]triazolo[4,3,a]quinoxaline]
IC50 [1]: 475 nM | IC50 [2]: 11.9 nM

COc1ccc(C(=C2CCN(CCCN3Cc4nnc(C)n4-c4ccccc43)CC2)c2ccccc2)cc1OC [Compound 142, 4,5-dihydro-1-methyl-5-[3-[4-[(3,4-dimethoxyphenyl)phenylmethylene]piperidin-1-yl]propyl] [1,2,4]triazolo[4,3,a]quinoxaline]
IC50 [1]: 952 nM | IC50 [2]: 162 nM

COc1cccc(C(=C2CCN(CCCN3Cc4nnc(C)n4-c4ccccc43)CC2)c2cccc(OC)c2)c1 [Compound 143, 4,5-dihydro-1-methyl-5-[3-[4-[bis(3-methoxyphenyl)methylene]piperidin-1-yl]propyl] [1,2,4]triazolo[4,3,a]quinoxaline]
IC50 [1]: 411 nM | IC50 [2]: 74.7 nM

COc1ccccc1C(=C1CCN(CCCN2Cc3nnc(C)n3-c3ccccc32)CC1)c1ccccc1OC [Compound 145, 4,5-dihydro-1-methyl-5-[3-[4-[bis(2-methoxyphenyl)methylene]piperidin-1-yl]propyl] [1,2,4]triazolo[4,3,a]quinoxaline]
IC50 [1]: 1700 nM | IC50 [2]: 411 nM

Cc1cccc(C(=C2CCN(CCCN3Cc4nnc(C)n4-c4ccccc43)CC2)c2cccc(C)c2)c1 [Compound 147, 4,5-dihydro-1-methyl-5-[3-[4-[bis(3-tolyl)methylene]piperidin-1-yl]propyl] [1,2,4]triazolo[4,3,a]quinoxaline]
IC50 [1]: 173 nM | IC50 [2]: 67.5 nM

COc1ccc(C(=C2CCN(CCCN3Cc4nnc(C)n4-c4ccccc43)CC2)c2ccc(OC)cc2)cc1 [Compound 148, 4,5-dihydro-1-methyl-5-[3-[4-[bis(4-methoxyphenyl)methylene]piperidin-1-yl]propyl] [1,2,4]triazolo[4,3,a]quinoxaline]
IC50 [1]: 597 nM | IC50 [2]: 54.1 nM

Cc1nnc2n1-c1ccccc1N(CCCN1CCC(=C(c3ccccc3)c3ccc(Cl)cc3)CC1)C2 [Compound 149, 4,5-dihydro-1-methyl-5-[3-[4-[(4-chlorophenyl)phenylmethylene]piperidin-1-yl]propyl] [1,2,4]triazolo[4,3,a]quinoxaline]
IC50 [1]: 1080 nM | IC50 [2]: 206 nM

Cc1nnc2n1-c1ccccc1N(CCCN1CCC(=C(c3ccc(Cl)cc3)c3ccc(Cl)cc3)CC1)C2 [Compound 150, 4,5-dihydro-1-methyl-5-[3-[4-[bis(4-chlorophenyl)methylene]piperidin-1-yl]propyl] [1,2,4]triazolo[4,3,a]quinoxaline]
IC50 [1]: 937 nM | IC50 [2]: 152 nM

Cc1nnc2n1-c1ccccc1N(CCCN1CCC(=C(c3ccccc3)c3ccc(C(F)(F)F)cc3)CC1)C2 [Compound 151, 4,5-dihydro-1-methyl-5-[3-[4-[[4-(trifluoromethyl)phenyl]phenylmethylene]piperidin-1-yl]propyl] [1,2,4]triazolo[4,3,a]quinoxaline]
IC50 [1]: 1400 nM | IC50 [2]: 110 nM

Cc1nnc2n1-c1ccccc1N(CCCN1CCC(=C(c3ccccc3)c3cccc(Cl)c3)CC1)C2 [Compound 154, 4,5-dihydro-1-methyl-5-[3-[4-[(3-chlorophenyl)phenylmethylene]piperidin-1-yl]propyl] [1,2,4]triazolo[4,3,a]quinoxaline]
IC50 [1]: 372 nM | IC50 [2]: 178 nM

Cc1nnc2n1-c1ccccc1N(CCCN1CCC(=C(c3cccc(Cl)c3)c3cccc(Cl)c3)CC1)C2 [Compound 155, 4,5-dihydro-1-methyl-5-[3-[4-[bis(3-chlorophenyl)methylene]piperidin-1-yl]propyl] [1,2,4]triazolo[4,3,a]quinoxaline]
IC50 [1]: 2200 nM | IC50 [2]: 132 nM

Cc1nnc2n1-c1ccccc1N(CCCN1CCC(=C(c3ccccc3)c3ccc(N(C)C)cc3)CC1)C2 [Compound 156, 4,5-dihydro-1-methyl-5-[3-[4-[(4-dimethylaminophenyl)phenyimethylene]piperidin-1-yl]propyl] [1,2,4]triazolo[4,3,a]quinoxaline]
IC50 [1]: 1120 nM | IC50 [2]: 55.9 nM

Cc1cccc(C(=C2CCN(CCCN3Cc4nnc(C)n4-c4ccccc43)CC2)c2ccccc2)c1 [Compound 160, 4,5-dihydro-1-methyl-5-[3-[4-[phenyl(3-tolyl)methylene]piperidin-1-yl]propyl] [1,2,4]triazolo[4,3,a]quinoxaline]
IC50 [1]: 145 nM | IC50 [2]: 198 nM

Cc1nnc2n1-c1ccccc1N(CCCN1CCC(=C(c3ccco3)c3ccco3)CC1)C2 [Compound 161, 4,5-dihydro-1-methyl-5-[3-[4-[bis(2-furyl)methylene]piperidin-1-yl]propyl] [1,2,4]triazolo[4,3,a]quinoxaline]
IC50 [1]: 1190 nM | IC50 [2]: 351 nM

Cc1nnc2n1-c1ccccc1N(CCCN1CCC(=C(c3ccccc3)c3ccc4ccccc4c3)CC1)C2 [Compound 163, 4,5-dihydro-1-methyl-5-[3-[4-[(2-naphthyl)phenylmethylene]piperidin-1-yl]propyl] [1,2,4]triazolo[4,3,a]quinoxaline]
IC50 [1]: 609 nM | IC50 [2]: 342 nM

Cc1nnc2n1-c1ccccc1N(CCCN1CCC(=C(c3ccccc3)c3cccs3)CC1)C2 [Compound 164, 4,5-dihydro-1-methyl-5-[3-[4-[phenyl(2-thienyl)methylene]piperidin-1-yl]propyl] [1,2,4]triazolo[4,3,a]quinoxaline]
IC50 [1]: 747 nM | IC50 [2]: 249 nM

Cc1nnc2n1-c1ccccc1N(CCCN1CCC(=C(c3cccs3)c3cccs3)CC1)C2 [Compound 165, 4,5-dihydro-1-methyl-5-[3-[4-[bis(2-thienyl)methylene]piperidin-1-yl]propyl] [1,2,4]triazolo[4,3,a]quinoxaline]
IC50 [1]: 1520 nM | IC50 [2]: 820 nM

CCc1nnc2n(CCCN3CCC(c4c[nH]c5ccccc45)CC3)c3ccccc3n12 [Compound 193, 3-ethyl-9-[3-[4-(3-indolyl)piperidin-1-yl]propyl]-9H-[1,2,4]triazolo[4,3-a]benzimidazole fumaric acid salt]
IC50 [1]: 1550 nM | IC50 [2]: 5340 nM

CCCc1nnc2n(CCCN3CCC(c4c[nH]c5ccccc45)CC3)c3ccccc3n12 [Compound 194, 3-propyl-9-[3-[4-(3-indolyl)piperidin-1-yl]propyl]-9H-[1,2,4]triazolo[4,3-a]benzimidazole fumaric acid salt]
IC50 [1]: 80.8 nM | IC50 [2]: 1980 nM

Cc1nnc2n(CCCN3CCC(c4c[nH]c5ccc(Cl)cc45)CC3)c3ccccc3n12 [Compound 195, 3-methyl-9-[3-[4-(5-chloro-3-indolyl)piperidin-1-yl]propyl]-9H-[1,2,4]triazolo[4,3-a] benzimidazole]
IC50 [1]: 313 nM | IC50 [2]: 246 nM

Cc1nnc2n(CCCN3CCC(c4c[nH]c5ccc(F)cc45)CC3)c3ccccc3n12 [Compound 196, 3-methyl-9-[3-[4-(5-fluoro-3-indolyl)piperidin-1-yl]propyl]-9H-[1,2,4]triazolo[4,3-a]benzimidazole]
IC50 [1]: 30.2 nM | IC50 [2]: 557 nM

Cc1ccc2[nH]cc(C3CCN(CCCn4c5ccccc5n5c(C)nnc45)CC3)c2c1 [Compound 197, 3-methyl-9-[3-[4-(5-methyl-3-indolyl)piperidin-1-yl]propyl]-9H-[1,2,4]triazolo[4,3-a]benzimidazole]
IC50 [1]: 586 nM | IC50 [2]: 75 nM

Cc1nnc2n(CCCN3CCC(C(O)(c4ccccc4)c4ccccc4)CC3)c3ccccc3n12 [Compound 198, 3-methyl-9-[3-[4-(hydroxydiphenylmethyl)piperidin-1-yl]propyl]-9H-[1,2,4]triazolo[4,3-a]benzimidazole fumaric acid salt]
IC50 [1]: 124 nM | IC50 [2]: 353 nM

Cc1nnc2n(CCCN3CCC(OC(c4ccccc4)c4ccccc4)CC3)c3ccccc3n12 [Compound 200, 3-methyl-9-[3-[4-(diphenylmethoxy)piperidin-1-yl]propyl]-9H-[1,2,4]triazolo[4,3-a]benzimidazole fumaric acid salt]
IC50 [1]: 38.6 nM | IC50 [2]: 50.4 nM

Cc1nnc2n(CCCN3CCC(=C(c4ccccc4)c4ccccc4)CC3)c3ccccc3n12 [Compound 201, 3-methyl-9-[3-[4-(diphenylmethylene)piperidin-1-yl]propyl]-9H-[1,2,4]triazolo[4,3-a]benzimidazole fumaric acid salt]
IC50 [1]: 277 nM | IC50 [2]: 294 nM
